Key:
[1] = target: Tyrosine-protein kinase BTK (Homo sapiens, UniProt Q06187); assay: Inhibition of human BTK-A using phosphorylated substrate in presence of ATP by microplate reader assay
OCI-Ly10 = assay: Antiproliferative activity against human OCILY10 cells assessed as reduction in cell proliferation measured after 96 hrs; type: functional, cell-based; details: OCI-Ly10, 96 h

Sequence of Tyrosine-protein kinase BTK (Q06187 whole entry): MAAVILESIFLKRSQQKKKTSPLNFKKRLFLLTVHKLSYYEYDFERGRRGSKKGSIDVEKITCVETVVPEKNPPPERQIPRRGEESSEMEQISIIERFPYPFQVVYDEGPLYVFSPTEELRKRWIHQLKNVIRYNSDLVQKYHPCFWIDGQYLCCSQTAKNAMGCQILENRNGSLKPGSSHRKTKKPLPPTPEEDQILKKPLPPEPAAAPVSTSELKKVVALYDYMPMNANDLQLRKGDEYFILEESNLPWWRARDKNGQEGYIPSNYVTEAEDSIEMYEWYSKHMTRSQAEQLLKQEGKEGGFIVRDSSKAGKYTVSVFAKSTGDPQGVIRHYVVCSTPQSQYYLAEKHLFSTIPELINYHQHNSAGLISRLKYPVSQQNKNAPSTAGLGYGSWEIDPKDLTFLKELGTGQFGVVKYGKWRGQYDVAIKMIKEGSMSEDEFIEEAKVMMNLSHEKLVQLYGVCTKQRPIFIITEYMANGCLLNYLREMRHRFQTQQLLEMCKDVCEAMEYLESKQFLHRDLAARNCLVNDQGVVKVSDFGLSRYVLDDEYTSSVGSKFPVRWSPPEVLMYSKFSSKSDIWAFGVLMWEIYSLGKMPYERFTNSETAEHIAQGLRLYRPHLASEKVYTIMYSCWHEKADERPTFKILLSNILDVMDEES

IC50 [1]	IC50 (OCI-Ly10)	Compound
0.69 nM	13 nM	Nc1nc(-c2cccc(-n3ccc4cc(C5CC5)cc(F)c4c3=O)c2CO)c2cc(C3=CCN(C(=O)CN4CCOCC4)CC3)[nH]c2n1
51 nM	–	Nc1nc(-c2cccc(-n3ccc4cc(C5CC5)cc(F)c4c3=O)c2CO)c2cc[nH]c2n1
2.1 nM	–	Nc1nc(-c2cccc(-n3ccc4cc(C5CC5)cc(F)c4c3=O)c2CO)c2cc(-c3cccnc3)[nH]c2n1

Source: ChEMBL document CHEMBL5053510, “Discovery of AS-1763: A Potent, Selective, Noncovalent, and Orally Available Inhibitor of Bruton's Tyrosine Kinase” (J Med Chem, 2021)
